We go through nine molecules from ChEMBL document CHEMBL1145302, “Synthesis and antibacterial activity of C6-carbazate ketolides” (2006).

In general, ED50 refers to the dose at which the effect has come halfway, by size or by number of responders.

≈ marks a conversion by molar mass, not a printed value.

What all share (assay type): functional
The subject of test [1] is Streptococcus pneumoniae. Briefly: Antibacterial activity against erythromycin-resistant Streptococcus pneumoniae OC4051 containing erm(B).
Test [2] has as its system Streptococcus pneumoniae. Briefly: Antibacterial activity against erythromycin-susceptible Streptococcus pneumoniae OC9132.
Test [3] deals with Staphylococcus aureus. Briefly: Antibacterial activity against erythromycin-susceptible Staphylococcus aureus Smith OC4172.
Test [4] concerns Staphylococcus aureus. Briefly: Antibacterial activity against erythromycin-susceptible Staphylococcus aureus Smith OC4172 in presence of 50% mouse serum.
The test system of test [5] is Haemophilus influenzae. In words: Antibacterial activity against telithromycin-susceptible Haemophilus influenzae ATCC 49766.
In test [6] the test system is Streptococcus pneumoniae. In words: Antibacterial activity against erythromycin-resistant Streptococcus pneumoniae OC4421 containing mef(A).
For test [7], the system named is Staphylococcus haemolyticus. Briefly: Antibacterial activity against erythromycin resistant Staphylococcus haemolyticus OC3882 containing erm(C).
The test system of test [8] is Staphylococcus aureus. In words: Antibacterial activity against Staphylococcus aureus Smith infected in sc dosed Swiss Webster mouse septicemia model.
In test [9] the test system is Staphylococcus aureus. In words: Antibacterial activity against Staphylococcus aureus Smith infected in orally dosed Swiss Webster mouse septicemia model. Particulars: po.

Consider `CC[C@H]1OC(=O)[C@H](C)C(=O)[C@H](C)[C@@H](O[C@@H]2O[C@H](C)C[C@H](N(C)C)[C@H]2O)[C@](C)(OC(=O)NNCCc2cnc3ccccc3c2)C[C@@H](C)C(=O)[C@H](C)[C@H]2NC(=O)O[C@@]21C`, for which the MIC turned out to be 0.06 µg/mL (≈ 0.0739 µM) in test [1]; 0.03 µg/mL (≈ 0.0369 µM) in [2]; 0.5 µg/mL (≈ 0.616 µM) in [3]; 1 µg/mL in test [4]; 0.5 µg/mL (≈ 0.616 µM) in test [5]; 0.25 µg/mL (≈ 0.308 µM) in [6]. In addition, the MIC in test [7] was found to be 0.5 µg/mL (≈ 0.616 µM).

With `CC[C@H]1OC(=O)[C@H](C)C(=O)[C@H](C)[C@@H](O[C@@H]2O[C@H](C)C[C@H](N(C)C)[C@H]2O)[C@](C)(OC(=O)N(C)NCCc2ccc(-c3cnccn3)cc2)C[C@@H](C)C(=O)[C@H](C)[C@H]2NC(=O)O[C@@]21C`, the MIC in [1] came to 0.12 µg/mL (≈ 0.141 µM); in test [2] it was 0.06 µg/mL (≈ 0.0703 µM); in test [3], 0.5 µg/mL (≈ 0.586 µM); in [4], 2 µg/mL; in test [5], 8 µg/mL (≈ 9.38 µM); in [6] it was 0.5 µg/mL (≈ 0.586 µM). Moreover, the MIC in test [7] stood at 2 µg/mL (≈ 2.34 µM).

Consider `CC[C@H]1OC(=O)[C@H](C)C(=O)[C@H](C)[C@@H](O[C@@H]2O[C@H](C)C[C@H](N(C)C)[C@H]2O)[C@](C)(OC(=O)NN(C)CCc2cnc3ccccc3c2)C[C@@H](C)C(=O)[C@H](C)[C@H]2NC(=O)O[C@@]21C`, for which the MIC in test [1] was determined as 0.12 µg/mL (≈ 0.145 µM); in test [2], 0.06 µg/mL (≈ 0.0726 µM); in test [3], 1 µg/mL (≈ 1.21 µM); in test [4], 2 µg/mL; in test [5], 2 µg/mL (≈ 2.42 µM); in test [6] it was 0.5 µg/mL (≈ 0.605 µM). The same molecule returned an MIC in [7] of 8 µg/mL (≈ 9.69 µM).

With `CC[C@H]1OC(=O)[C@H](C)C(=O)[C@H](C)[C@@H](O[C@@H]2O[C@H](C)C[C@H](N(C)C)[C@H]2O)[C@](C)(OC(=O)NNCCc2cccc(-c3ncccn3)c2)C[C@@H](C)C(=O)[C@H](C)[C@H]2NC(=O)O[C@@]21C`, the MIC came out at 0.06 µg/mL (≈ 0.0715 µM) in [1]; 0.03 µg/mL (≈ 0.0358 µM) in test [2]; 0.25 µg/mL (≈ 0.298 µM) in test [3]; 1 µg/mL in [4]; 2 µg/mL (≈ 2.38 µM) in test [5]; 0.25 µg/mL (≈ 0.298 µM) in [6]. The MIC in test [7] came out at 0.25 µg/mL (≈ 0.298 µM). Besides, the ED50 in test [8] was 4.3 mg/kg; in test [9], more than 20 mg/kg.

Turning to `CC[C@H]1OC(=O)[C@H](C)C(=O)[C@H](C)[C@@H](O[C@@H]2O[C@H](C)C[C@H](N(C)C)[C@H]2O)[C@](C)(OC(=O)NN(C)CCc2ccc(-c3cnccn3)cc2)C[C@@H](C)C(=O)[C@H](C)[C@H]2NC(=O)O[C@@]21C`, the MIC was found to be 0.06 µg/mL (≈ 0.0703 µM) in test [1]; 0.03 µg/mL (≈ 0.0352 µM) in test [2]; 0.25 µg/mL (≈ 0.293 µM) in [3]; 0.5 µg/mL in test [4]; 2 µg/mL (≈ 2.34 µM) in [5]; 0.25 µg/mL (≈ 0.293 µM) in test [6]. For the same molecule, the MIC in test [7] was determined as 0.5 µg/mL (≈ 0.586 µM).

With `CC[C@H]1OC(=O)[C@H](C)C(=O)[C@H](C)[C@@H](O[C@@H]2O[C@H](C)C[C@H](N(C)C)[C@H]2O)[C@](C)(OC(=O)NN(C)CCCc2ccc(-c3ncccn3)cc2)C[C@@H](C)C(=O)[C@H](C)[C@H]2NC(=O)O[C@@]21C`, the MIC amounted to 0.5 µg/mL (≈ 0.577 µM) in test [1]; 0.06 µg/mL (≈ 0.0692 µM) in [2]; 0.5 µg/mL (≈ 0.577 µM) in test [3]; 1 µg/mL in [4]; 8 µg/mL (≈ 9.23 µM) in [5]; 0.5 µg/mL (≈ 0.577 µM) in test [6]. Also, the MIC in [7] came out at 1 µg/mL (≈ 1.15 µM).

With `CC[C@H]1OC(=O)[C@H](C)C(=O)[C@H](C)[C@@H](O[C@@H]2O[C@H](C)C[C@H](N(C)C)[C@H]2O)[C@](C)(OC(=O)NN(CC)CCc2ccc(-c3ncccn3)cc2)C[C@@H](C)C(=O)[C@H](C)[C@H]2NC(=O)O[C@@]21C`, the MIC in test [1] is 0.12 µg/mL (≈ 0.138 µM); in [2], 0.12 µg/mL (≈ 0.138 µM); in test [3], 0.25 µg/mL (≈ 0.288 µM); in test [4], 2 µg/mL; in test [5], 8 µg/mL (≈ 9.23 µM); in [6], 0.25 µg/mL (≈ 0.288 µM). Moreover, the MIC in test [7] worked out at 0.5 µg/mL (≈ 0.577 µM).

Take `CC[C@H]1OC(=O)[C@H](C)C(=O)[C@H](C)[C@@H](O[C@@H]2O[C@H](C)C[C@H](N(C)C)[C@H]2O)[C@](C)(OC(=O)NN(C)C/C=C/c2ccc(-c3ncccn3)cc2)C[C@@H](C)C(=O)[C@H](C)[C@H]2NC(=O)O[C@@]21C`: the MIC in [1] was determined as 0.25 µg/mL (≈ 0.289 µM); in [2], 0.03 µg/mL (≈ 0.0347 µM); in test [3] it was 0.25 µg/mL (≈ 0.289 µM); in [4] it was 0.5 µg/mL; in [5], 8 µg/mL (≈ 9.25 µM); in test [6] it was 0.5 µg/mL (≈ 0.578 µM). The molecule further came in with an MIC in test [7] of 0.5 µg/mL (≈ 0.578 µM).

As to `CC[C@H]1OC(=O)[C@H](C)C(=O)[C@H](C)[C@@H](O[C@@H]2O[C@H](C)C[C@H](N(C)C)[C@H]2O)[C@](C)(OC(=O)NN(C)CCc2ccc(-c3ncccn3)cc2F)C[C@@H](C)C(=O)[C@H](C)[C@H]2NC(=O)O[C@@]21C`, the MIC was 0.06 µg/mL (≈ 0.0689 µM) in [1]; 0.06 µg/mL (≈ 0.0689 µM) in test [2]; 0.5 µg/mL (≈ 0.574 µM) in [3]; 1 µg/mL in test [4]; 4 µg/mL (≈ 4.59 µM) in test [5]; 0.25 µg/mL (≈ 0.287 µM) in test [6]. For the same molecule, in test [7], the MIC was determined as 0.5 µg/mL (≈ 0.574 µM). In addition, the ED50 in [8] is 2.3 mg/kg; in test [9], more than 20 mg/kg.
